{"source": "ChEMBL document CHEMBL6109153", "about": "“Development of Membrane-Targeting Osthole Derivatives Containing Pyridinium Quaternary Ammonium Moieties with Potent Anti-Methicillin-Resistant Staphylococcus aureus Properties” (J Med Chem, 2025)", "key": {"[1]": {"test": "Toxicity in KM mouse assessed as erythema on dorsal skin at 30 mg/kg, sc", "type": "organism-based", "conditions": "in vivo"}, "[2]": {"test": "Toxicity in KM mouse assessed as erythema on dorsal skin at <=20 mg/kg, sc", "type": "organism-based", "conditions": "in vivo"}, "[3]": {"test": "Toxicity in KM mouse assessed as abnormality in heart at 20 mg/kg, sc by H and E staining based analysis", "type": "organism-based", "conditions": "in vivo"}, "[4]": {"test": "Toxicity in KM mouse assessed as abnormality in liver at 20 mg/kg, sc by H and E staining based analysis", "type": "organism-based", "conditions": "in vivo"}, "[5]": {"test": "Toxicity in KM mouse assessed as abnormality in kidney at 20 mg/kg, sc by H and E staining based analysis", "type": "organism-based", "conditions": "in vivo"}, "[6]": {"test": "Toxicity in BALB/c mouse assessed as change in blood routine parameters at 10 mg/kg, ip measured for 7 days", "type": "organism-based", "conditions": "in vivo, 168 h, time 7 day"}, "[7]": {"test": "Toxicity in BALB/c mouse assessed as change in serum biochemical parameters at 10 mg/kg, ip measured for 7 days", "type": "organism-based", "conditions": "in vivo, 168 h, time 7 day"}, "[8]": {"test": "Toxicity in BALB/c mouse assessed as obvious damage in tissues of organs at 10 mg/kg, ip measured for 7 days by H and E staining based analysis", "type": "organism-based", "conditions": "in vivo, 168 h, time 7 day"}, "[9]": {"test": "Toxicity in BALB/c mouse assessed as lesions in tissues of organs at 10 mg/kg, ip measured for 7 days by H and E staining based analysis", "type": "organism-based", "conditions": "in vivo, 168 h, time 7 day"}, "[10]": {"test": "Toxicity in KM mouse assessed as abnormality in heart at 30 mg/kg, sc by H and E staining based analysis", "type": "organism-based", "conditions": "in vivo"}, "[11]": {"test": "Toxicity in KM mouse assessed as erythema on dorsal skin at 40 mg/kg, sc", "type": "organism-based", "conditions": "in vivo"}, "[12]": {"test": "Toxicity in KM mouse assessed as adverse reactions at <=30 mg/kg, sc", "type": "organism-based", "conditions": "in vivo"}, "[13]": {"test": "Toxicity in KM mouse assessed as abnormality in liver at 30 mg/kg, sc by H and E staining based analysis", "type": "organism-based", "conditions": "in vivo"}, "[14]": {"test": "Toxicity in KM mouse assessed as abnormality in lung at 30 mg/kg, sc by H and E staining based analysis", "type": "organism-based", "conditions": "in vivo"}, "[15]": {"test": "Toxicity in KM mouse assessed as abnormality in kidney at 30 mg/kg, sc by H and E staining based analysis", "type": "organism-based", "conditions": "in vivo"}, "[16]": {"test": "Toxicity in BALB/c mouse assessed as change in blood routine parameters at 30 mg/kg, ip measured for 7 days", "type": "organism-based", "conditions": "in vivo, 168 h, time 7 day"}, "[17]": {"test": "Toxicity in BALB/c mouse assessed as change in serum biochemical parameters at 30 mg/kg, ip measured for 7 days", "type": "organism-based", "conditions": "in vivo, 168 h, time 7 day"}, "[18]": {"test": "Toxicity in BALB/c mouse assessed as obvious damage in tissues of organs at 30 mg/kg, ip measured for 7 days by H and E staining based analysis", "type": "organism-based", "conditions": "in vivo, 168 h, time 7 day"}, "[19]": {"test": "Toxicity in BALB/c mouse assessed as lesions in tissues of organs at 30 mg/kg, ip measured for 7 days by H and E staining based analysis", "type": "organism-based", "conditions": "in vivo, 168 h, time 7 day"}, "[20]": {"tested_on": "Staphylococcus aureus", "test": "Antibacterial activity against methicillin-resistant Staphylococcus aureus M11 infected in BALB/c mouse model of Sepsis assessed as vacuolar degeneration in liver cells at 10 to 20 mg/kg, ip measured after 48 hrs", "type": "functional, organism-based", "conditions": "dose 10-20 mg/kg"}, "[21]": {"tested_on": "Staphylococcus aureus", "test": "Antibacterial activity against methicillin-resistant Staphylococcus aureus M11 infected in BALB/c mouse model of Sepsis assessed as vacuolar degeneration in renal epithelial cells at 10 mg/kg, ip measured after 48 hrs", "type": "functional, organism-based"}, "[22]": {"tested_on": "Staphylococcus aureus", "test": "Antibacterial activity against methicillin-resistant Staphylococcus aureus M11 infected in BALB/c mouse model of Sepsis assessed as reduction in bacterial load in liver at 20 mg/kg, ip measured after 48 hrs", "type": "functional"}, "[23]": {"tested_on": "Staphylococcus aureus", "test": "Antibacterial activity against methicillin-resistant Staphylococcus aureus M11 infected in BALB/c mouse model of Sepsis assessed as reduction in bacterial load in spleen at 10 mg/kg, ip measured after 48 hrs", "type": "functional"}, "[24]": {"tested_on": "Staphylococcus aureus", "test": "Antibacterial activity against methicillin-resistant Staphylococcus aureus M11 infected in BALB/c mouse model of Sepsis assessed as reduction in bacterial load in spleen at 20 mg/kg, ip measured after 48 hrs", "type": "functional"}, "[25]": {"tested_on": "Staphylococcus aureus", "test": "Antibacterial activity against methicillin-resistant Staphylococcus aureus M11 infected in BALB/c mouse model of Sepsis assessed as reduction in bacterial load in kidney at 10 mg/kg, ip measured after 48 hrs", "type": "functional"}, "[26]": {"tested_on": "Staphylococcus aureus", "test": "Antibacterial activity against methicillin-resistant Staphylococcus aureus M11 infected in BALB/c mouse model of Sepsis assessed as reduction in serum IL-6 level administered intraperitoneally measured after 48 hrs", "type": "functional, organism-based", "conditions": "dose 10-20 mg/kg, route ip"}, "[27]": {"tested_on": "Staphylococcus aureus", "test": "Antibacterial activity against methicillin-resistant Staphylococcus aureus M11 infected in BALB/c mouse model of Sepsis assessed as reduction in serum TNF-alpha level administered intraperitoneally measured after 48 hrs", "type": "functional, organism-based", "conditions": "dose 10-20 mg/kg, route ip"}, "[28]": {"test": "Toxicity in BALB/c mouse model of Sepsis infected with methicillin-resistant Staphylococcus aureus M11 assessed as survival rate at 10 mg/kg, ip measured after 7 days", "type": "organism-based", "conditions": "in vivo, 168 h, time 7 day"}, "[29]": {"test": "Toxicity in BALB/c mouse model of Sepsis infected with methicillin-resistant Staphylococcus aureus M11 assessed as survival rate at 20 mg/kg, ip measured after 7 days", "type": "organism-based", "conditions": "in vivo, 168 h, time 7 day"}, "[30]": {"test": "Binding affinity to phosphatidylglycerol assessed as association constant by ITC analysis"}, "[31]": {"test": "Binding affinity to phosphatidylglycerol assessed as change in enthalpy by ITC analysis"}, "[32]": {"test": "Binding affinity to phosphatidylglycerol assessed as change in entropy by ITC analysis"}}, "note": "Activity calls are given as the source filed them. No cut-off for these calls is given here.", "data": [{"smiles": "CCCCCNC(=O)C[n+]1ccc(SCCCCCOc2ccc3ccc(=O)oc3c2CC=C(C)C)cc1.[Br-]", "values": [{"measurement": "Activity", "setting": "[1]", "value": "Toxic"}, {"measurement": "Activity", "setting": "[2]", "value": "Non-toxic"}, {"measurement": "Activity", "setting": "[3]", "value": "Non-toxic"}, {"measurement": "Activity", "setting": "[4]", "value": "Non-toxic"}, {"measurement": "Activity", "setting": "[5]", "value": "Non-toxic"}, {"measurement": "Activity", "setting": "[6]", "value": "Non-toxic"}, {"measurement": "Activity", "setting": "[7]", "value": "Non-toxic"}, {"measurement": "Activity", "setting": "[8]", "value": "Non-toxic"}, {"measurement": "Activity", "setting": "[9]", "value": "Non-toxic"}]}, {"smiles": "CC(C)=CCc1c(OCCCCSc2cc[n+](CC(=O)N(CC(C)C)CC(C)C)cc2)ccc2ccc(=O)oc12.[Br-]", "values": [{"measurement": "Activity", "setting": "[10]", "value": "Non-toxic"}, {"measurement": "Activity", "setting": "[11]", "value": "Toxic"}, {"measurement": "Activity", "setting": "[12]", "value": "Non-toxic"}, {"measurement": "Activity", "setting": "[13]", "value": "Non-toxic"}, {"measurement": "Activity", "setting": "[14]", "value": "Non-toxic"}, {"measurement": "Activity", "setting": "[15]", "value": "Non-toxic"}, {"measurement": "Activity", "setting": "[16]", "value": "Non-toxic"}, {"measurement": "Activity", "setting": "[17]", "value": "Non-toxic"}, {"measurement": "Activity", "setting": "[18]", "value": "Non-toxic"}, {"measurement": "Activity", "setting": "[19]", "value": "Non-toxic"}, {"measurement": "Activity", "setting": "[20]", "value": "Active"}, {"measurement": "Activity", "setting": "[21]", "value": "inactive"}, {"measurement": "Activity", "setting": "[22]", "value": 3.81, "unit": "log10CFU/ml"}, {"measurement": "Activity", "setting": "[23]", "value": 1.62, "unit": "log10CFU/ml"}, {"measurement": "Activity", "setting": "[24]", "value": 4.33, "unit": "log10CFU/ml"}, {"measurement": "Activity", "setting": "[25]", "value": 1.81, "unit": "log10CFU/ml"}, {"measurement": "Activity", "setting": "[26]", "value": "Dose-dependent-effect"}, {"measurement": "Activity", "setting": "[27]", "value": "Dose-dependent-effect"}, {"measurement": "Survival", "setting": "[28]", "value": 44.4, "unit": "%"}, {"measurement": "Survival", "setting": "[29]", "value": 66.7, "unit": "%"}, {"measurement": "Ka", "setting": "[30]", "value": "3.53 10^4/M"}, {"measurement": "deltaH", "setting": "[31]", "value": -11.4, "unit": "kJ/mol"}, {"measurement": "deltaS", "setting": "[32]", "value": 11.7, "unit": "cal/mol/deg"}]}]}
